Measurements reported in patent publication US11647776B2, “Extract, consumable product and method for enriching bioactive metabolite in an extract” (Brightseed, Inc., priority 2019, dated 2023).

What was measured:
red potatoes [1] = assay: wounding combined with THT enzyme elicitors: N-trans-feruloyltyramine production in sliced red potatoes; set-up: species or system Solanum tuberosum; settings: sliced red potatoes dipped in 1 mg/ml laminaran, 10 mg/ml inactivated cordy-gen fungi or 10 mg/ml live endomycorrhizal fungi; 4 or 8 days at room temperature; water control
Procedure: Red potatoes were sliced (i.e., wounded) and dipped into aqueous solutions of 10 mg/ml live endomycorrhizal fungi, 10 mg/ml inactivated cordy-gen fungi, or 1 mg/ml laminaran (polysaccharide from brown algae).
For this analysis, red potatoes were sliced to a standard thickness. Subsequently, the potato slices were dipped into solutions of 10 mg/ml live endomycorrhizal fungi, 10 mg/ml inactivated cordy-gen fungi (from Mycopia), 1 mg/ml laminaran (polysaccharide from brown algae) or water (control) The potato slices were loosely covered to allow for air flow and incubated for 4 or 8 days at room temperature.

red potatoes [2] = assay: wounding combined with precursor exposure: N-trans-feruloyltyramine production in sliced red potatoes; set-up: species or system Solanum tuberosum; settings: sliced red potatoes dipped in 400 μM tyramine or citric acid (pH ~4); for N-trans-feruloyltyramine production: 4 days at room temperature, water control
Procedure: Red potatoes were sliced (i.e., and boiled in water for 6 minutes or dipped into abiotic […]) aqueous solutions of 400 μM tyramine or citric acid (pH ˜4).
For this analysis, red potatoes were sliced to a standard thickness (¼ inch; two potatoes/time point). Subsequently, the potato slices were either boiled in water for 6 minutes, or dipped into aqueous solutions of 400 μM tyramine (as precursor) or citric acid (pH ˜4; as a preservative), or water (control). The potato slices were loosely covered to allow for air flow and incubated for 4 days at room temperature.

Solanum tuberosum = assay: wounding response of potato tubers (N-trans-feruloyltyramine production); settings: wounded potatoes
Procedure: Thus, it was determined whether elevated levels tyramine containing hydroxycinnamic acid amides could be generated in situ by subjecting a plant to an abiotic stress, e.g., wounding. In particular, yellow tubers of Solanum tuberosum were wounded by wounding and production of N-trans-feruloyltyramine in the tuber was assessed 1, 5 and 9 days after wounding.

| Compound | production of N-trans-feruloyltyramine in response to wounding (red potatoes [1]) | browning of the wounded potato slices (red potatoes [2]) | N-trans-feruloyltyramine production (red potatoes [2]) | effect on the wounding response (Solanum tuberosum) |
| --- | --- | --- | --- | --- |
| laminaran | substantially enhanced | – | – | – |
| O=C(O)CC(O)(CC(=O)O)C(=O)O [citric acid] | – | inhibited the browning pathway | little effect | – |
| NCCc1ccc(O)cc1 [tyramine] | – | further increased browning | could enhance | enhanced the wounding response |
